In brackets after ≈: the same amount, converted by molar mass.
Experiments:
H. influenzae [1] = format: cell-based, Haemophilus influenzae
F. necrophorum = test: E-test, 13 clinical isolates; format: cell-based, Fusobacterium necrophorum
S. pneumoniae [2] = format: cell-based, Streptococcus pneumoniae
P. stuartii = test: Italian survey of severe infections 2003, MIC; format: cell-based, Providencia stuartii
E. coli [3] = test: E-test susceptibility; format: cell-based, Escherichia coli
S. marcescens = test: Italian survey of severe infections 2003, MIC; format: cell-based, Serratia marcescens
Shigella spp. = test: Disk diffusion, stool isolates Tehran; format: cell-based; details: 96 isolates
S. pneumoniae [4] = test: MIC of invasive strains, Saint George Hospital 2001–2004; format: cell-based, Streptococcus pneumoniae
Acinetobacter = test: Disk diffusion; format: cell-based; details: 37 isolates selected as resistant to beta-lactams
nontyphoidal Salmonella = test: Agar dilution, isolates from chickens 1998–2004; format: cell-based, Salmonella spp.; details: Salmonella, read-out: MIC 50/90
K. pneumoniae = test: E-test susceptibility; format: cell-based, Klebsiella pneumoniae
M. morganii = test: Italian survey of severe infections 2003, MIC; format: cell-based, Morganella morganii
Escherichia coli (ECO) = test: Broth microdilution; format: cell-based; details: 2001
Pseudomonas spp. = test: MIC; format: cell-based
S. pyogenes [5] = test: Sensitivity of CAP pathogens with/without antibiotic pretreatment; format: cell-based, Streptococcus pyogenes; details: Abs. 4
Enterococcus sp = test: as above; format: cell-based
H.influenzae = test: Broth microdilution; format: cell-based, Haemophilus influenzae; details: Haemophilus influenzae
S. -pneumoniae = test: Sensitivity of CAP pathogens with/without antibiotic pretreatment; format: cell-based, Streptococcus pneumoniae
PRSP = test: Broth microdilution; format: cell-based, Streptococcus pneumoniae
[6] = tested on: ‘wild type’ Staphylococcus epidermidis skin isolates; test: NCCLS disk diffusion; format: cell-based; details: 52 isolates
S. pneumoniae (SPN) = test: SENTRY Brazil, NCCLS broth microdilution; format: cell-based, Streptococcus pneumoniae
Other Haemophilus sp. = test: Sensitivity of CAP pathogens with/without antibiotic pretreatment; format: cell-based
Staph. coaq (−) = test: as above; format: cell-based, coagulase-negative Staphylococcus
Kl. pneumoniae = test: as above; format: cell-based, Klebsiella pneumoniae
H. influenzae [7] = test: Disk diffusion; format: cell-based, Haemophilus influenzae; details: 237 isolates
ERSP = test: Broth microdilution; format: cell-based, Streptococcus pneumoniae
[8] = tested on: pathogens in community acquired pneumonia of different severity; test: Sensitivity of CAP pathogens by Fine severity group; format: cell-based
[9] = tested on: viridans group streptococci (VGS); test: MIC; format: cell-based
S. pyogenes [10] = test: Broth microdilution; format: cell-based, Streptococcus pyogenes; details: 212 isolates
S. pneumoniae [11] = test: Broth microdilution; format: cell-based, Streptococcus pneumoniae
[12] = tested on: Total pathogens in community acquired pneumonia; test: Sensitivity of CAP pathogens with/without antibiotic pretreatment; format: cell-based
[13] = tested on: beta-haemolytic streptococcal isolates; test: Disk diffusion; format: cell-based, beta-haemolytic streptococci; details: 228 isolates
E. coli [14] = test: Sensitivity of CAP pathogens with/without antibiotic pretreatment; format: cell-based, Escherichia coli
Moraxella spp. = test: Disk diffusion; format: cell-based; details: 35 isolates
S. aureus [15] = test: Sensitivity of CAP pathogens with/without antibiotic pretreatment; format: cell-based, Staphylococcus aureus
C. difficile = test: E-test, isolates from a department of surgery; format: cell-based, Clostridium difficile; details: Clostridioides difficile, read-out: MIC of high level resistant strains
[16] = tested on: biofilms of S. aureus (SA204 and SA195) and S. epidermidis (ATCC35983 and ATCC35984); test: Antibiotic lock, in vitro biofilm on polyurethane film, viable counts; format: cell-based, Staphylococcus species; details: any of the time intervals examined
P. aeruginosa = test: Sensitivity of CAP pathogens with/without antibiotic pretreatment; format: cell-based, Pseudomonas aeruginosa; details: Abs. 3
Streptococcus pneumoniae = test: BSAC agar dilution, lower respiratory isolates UK and Ireland; format: cell-based
H. influenzae [17] = test: Sensitivity of CAP pathogens with/without antibiotic pretreatment; format: cell-based, Haemophilus influenzae
S. pneumoniae (Sp) = test: Broth microdilution, point prevalence study Spain; format: cell-based, Streptococcus pneumoniae; details: 360 isolates, February 2004; penicillin I+R
[18] = tested on: Other non-fermenting bacteria; test: Sensitivity of CAP pathogens with/without antibiotic pretreatment; format: cell-based
Other Enterobacteriacae = test: as above; format: cell-based, Enterobacteriaceae
H. influenzae [19] = test: Disk diffusion, sputum isolates Athens 2001–2004; format: cell-based, Haemophilus influenzae
S. aureus [20] = test: Italian survey of severe infections 2003, MIC; format: cell-based, Staphylococcus aureus
CoNS = test: Methicillin resistance, PBSCT patients; format: cell-based, Coagulase-negative Staphylococcus
[21] = tested on: Staphylococcus epidermidis; test: Broth microdilution and E-test, diabetic foot ulcers; format: cell-based; details: 53 isolates
Staphylococcus aureus [22] = test: as above; format: cell-based; details: 81 isolates
S. aureus [23] = test: Methicillin resistance, PBSCT patients; format: cell-based, Staphylococcus aureus
Staphylococcus aureus [24] = test: EARSS Ireland, invasive isolates; format: cell-based; details: Jan'99–Jun'04, 4786 isolates
S. epidermidis = test: Italian survey of severe infections 2003, MIC; format: cell-based, Staphylococcus epidermidis
[25] = tested on: Moraxella catarrhalis (MC); test: MIC; format: cell-based; details: 2497 isolates
[26] = tested on: Streptococcus pyogenes (SPY); test: MIC; format: cell-based; details: 2522 isolates
S. pneumoniae [27] = test: PROTEKT Italy, NCCLS microdilution; format: cell-based, Streptococcus pneumoniae
[28] = tested on: Haemophilus influenzae (HI); test: MIC; format: cell-based; details: 7489 isolates
S. pyogenes [29] = test: PROTEKT Italy, NCCLS microdilution; format: cell-based, Streptococcus pyogenes; details: year 1: 2002
[30] = tested on: Streptococcus pneumoniae (SPN); test: MIC; format: cell-based; details: 8378 isolates
[31] = NCCLS breakpoints (Amox/Clav 2/1 mcg/mL)

CO/N=C(\C(=O)N[C@@H]1C(=O)N2C(C(=O)O)=C(COC(C)=O)CS[C@H]12)c1csc(N)n1 [cefotaxime] gave a resistant (H. influenzae [1]) of 0%, an MIC range (F. necrophorum) of 0.016 to 256 µg/mL and an MIC50 (F. necrophorum; Fusobacterium necrophorum) of 0.016 µg/mL (≈ 0.0351 µM). It also gave an MIC90 (F. necrophorum; Fusobacterium necrophorum) of 0.064 µg/mL (≈ 0.141 µM), a resistant (S. pneumoniae [2]) of 0% and a resistance (P. stuartii) of 84.5%. For the same compound, the Susceptible isolates (E. coli [3]; ICU, SRGA breakpoints, tigecycline tentative S ≤2 μg/ml) was 98%, the Susceptible isolates (E. coli [3]; non ICU) was 99% and the resistance (S. marcescens) was 13.2%. For the same compound, the sensitive (Shigella spp.) was 100%, the “% S” value (S. pneumoniae [4]) was 95.2% and the “%R” value (S. pneumoniae [4]) was 4.8%. For the same compound, the resistant isolates (Acinetobacter) was 75.7%, the MIC50 (nontyphoidal Salmonella) was 0.12 to 0.25 µg/mL (≈ 0.263 to 0.549 µM) and the Susceptible isolates (K. pneumoniae; ICU) was 98%. The Susceptible isolates (K. pneumoniae; non ICU) was 100%, the resistance (M. morganii) was 14,3% and the susceptible (Escherichia coli (ECO); NAL-resistant isolates) was 89.9%. For the same compound, the susceptible (Escherichia coli (ECO); NAL-susceptible isolates) was 99.2% and the resistant strains (Pseudomonas spp.) was 90%.
With CC[C@H]1OC(=O)[C@H](C)[C@@H](O[C@H]2C[C@@](C)(OC)[C@@H](O)[C@H](C)O2)[C@H](C)[C@@H](O[C@@H]2O[C@H](C)C[C@H](N(C)C)[C@H]2O)[C@](C)(O)C[C@@H](C)C(=O)[C@H](C)[C@@H](O)[C@]1(C)O [erythromycin] the “% of sensitive strains” value (S. pyogenes [5]; after pretreatment) was 100.0%, the “% of sensitive strains” value (S. pyogenes [5]; without pretreatment) was 100.0% and the “% of sensitive strains” value (Enterococcus sp; after pretreatment, Abs. 0) was 0.0%. For the same compound, the “% of sensitive strains” value (Enterococcus sp; without pretreatment, Abs. 1) was 0.0%, the MIC90 (H.influenzae) was 8 µg/mL (≈ 10.9 µM) and the “% of sensitive strains” value (S. -pneumoniae; after antibiotic pretreatment, Abs. 3) was 100.0%. The “% of sensitive strains” value (S. -pneumoniae; without antibiotic pretreatment, Abs. 13) was 100.0%, the “%Sus” value (PRSP; [31]) was 21.5% and the MIC90 (PRSP; Streptococcus pneumoniae, PRSP) was greater than 32 µg/mL. The “% resistant” value [6] was 46.2%, the “% S” value (S. pneumoniae (SPN); 1998) was 85% and the “% S” value (S. pneumoniae (SPN); 1999) was 88%. For the same compound, the “% S” value (S. pneumoniae (SPN); 2000) was 91%, the “% S” value (S. pneumoniae (SPN); 2001) was 90% and the “% S” value (S. pneumoniae (SPN); 2002) was 94%. The “% S” value (S. pneumoniae (SPN); 2003) was 91%, the “% of sensitive strains” value (Other Haemophilus sp.; after pretreatment, Abs. 11) was 0.0% and the “% of sensitive strains” value (Other Haemophilus sp.; without pretreatment, Abs. 21) was 00%. For the same compound, the “% of sensitive strains” value (Staph. coaq (−); after pretreatment, Abs. 2) was 50.0%, the “% of sensitive strains” value (Staph. coaq (−); without pretreatment, Abs. 4) was 75.0% and the “% of sensitive strains” value (Kl. pneumoniae; after pretreatment, Abs. 5) was 0.0%. The “% of sensitive strains” value (Kl. pneumoniae; without pretreatment, Abs. 4) was 0.0%, the Susceptible isolates (H. influenzae [7]) was 94% and the “%Sus” value (ERSP; [31]) was 0.0%. For the same compound, the MIC90 (ERSP; Streptococcus pneumoniae) was greater than 32 µg/mL, the “sensitivity, total strains” value ([8]; higher severity group (Fine scores >70)) was 26,3% and the “sensitivity, total strains” value ([8]; lower severity group (Fine scores <70)) was 17.6%. It also gave an MIC50 [9] of 0.12 µg/mL (≈ 0.164 µM), an MIC90 [9] of 256 µg/mL (≈ 349 µM) and a nonsusceptible (S. pyogenes [10]) of 10.8%. The “%Sus” value (S. pneumoniae [11]; [31]) was 71.2%, the MIC90 (S. pneumoniae [11]; Streptococcus pneumoniae) was greater than 32 µg/mL and the “% of sensitive strains” value ([12]; after pretreatment, Abs. 48) was 22.9%. For the same compound, the “% of sensitive strains” value ([12]; without pretreatment, Abs. 95) was 26.3%, the Susceptible isolates [13] was 98% and the “% of sensitive strains” value (E. coli [14]; after pretreatment, Abs. 1) was 0.0%. For the same compound, the “% of sensitive strains” value (E. coli [14]; without pretreatment, Abs. 5) was 0.0%, the Susceptible isolates (Moraxella spp.) was 100% and the “% of sensitive strains” value (S. aureus [15]; after pretreatment, Abs. 4) was 75.0%. For the same compound, the “% of sensitive strains” value (S. aureus [15]; without pretreatment, Abs. 11) was 45.5%, the MIC (C. difficile) was greater than 256 µg/mL and the “% S” value (S. pneumoniae [4]) was 82%. For the same compound, the “%R” value (S. pneumoniae [4]) was 18%, the significant biofilm killing [16] was “not achieved” and the “% of sensitive strains” value (P. aeruginosa; after pretreatment) was 0.0%. The “% of sensitive strains” value (P. aeruginosa; without pretreatment) was 0.0%, the “resistance (PEN-NS >0.06, TET-R >1, ERY-R >0.5, CIP-R >2 mg/L)” value (Streptococcus pneumoniae; Ireland 1999–2000, N 66) was 27.3% and the “resistance (same cut-offs)” value (Streptococcus pneumoniae; Ireland 2000–2001, N 59) was 23.7%. For the same compound, the “resistance (same cut-offs)” value (Streptococcus pneumoniae; Ireland 2001–2002, N 68) was 25.0%, the “resistance (same cut-offs)” value (Streptococcus pneumoniae; Ireland 2002–2003, N 89) was 12.4% and the “resistance (same cut-offs)” value (Streptococcus pneumoniae; Ireland 2003–2004, N 76) was 9.2%. The “resistance (same cut-offs)” value (Streptococcus pneumoniae; UK 1999–2000, N 595) was 11.8%, the “resistance (same cut-offs)” value (Streptococcus pneumoniae; UK 2000–2001, N 608) was 10.0% and the “resistance (same cut-offs)” value (Streptococcus pneumoniae; UK 2001–2002, N 631) was 10.8%. The “resistance (same cut-offs)” value (Streptococcus pneumoniae; UK 2002–2003, N 683) was 9.7%, the “resistance (same cut-offs)” value (Streptococcus pneumoniae; UK 2003–2004, N 709) was 10.6% and the “% of sensitive strains” value (H. influenzae [17]; after pretreatment, Abs. 10) was 0.0%. For the same compound, the “% of sensitive strains” value (H. influenzae [17]; without pretreatment, Abs. 26) was 0.0%, the resistance (S. pneumoniae (Sp)) was 36% and the “% of sensitive strains” value ([18]; after pretreatment, Abs. 0) was 0.0%. The “% of sensitive strains” value ([18]; without pretreatment, Abs. 1) was 0.0%, the “% of sensitive strains” value (Other Enterobacteriacae; after pretreatment, Abs. 5) was 0.0% and the “% of sensitive strains” value (Other Enterobacteriacae; without pretreatment, Abs. 2) was 0.0%. The resistance rate (H. influenzae [19]; 2001–2002) was 49.5% and the resistance rate (H. influenzae [19]; 2003–2004) was 58.0%.
COc1cccc(OC)c1C(=O)N[C@@H]1C(=O)N2[C@@H]1SC(C)(C)[C@@H]2C(=O)O [methicillin] gave a resistance (S. aureus [20]) of 37.1%, a resistance (CoNS) of 86.5% and a resistant isolates [21] of 35.8%. It also gave a resistant isolates (Staphylococcus aureus [22]) of 27.2%, a resistance (S. aureus [23]) of 47.4% and a resistant isolates (Staphylococcus aureus [24]) of 41.4%. For the same compound, the resistance (S. epidermidis) was 86.7%.
For CC[C@H]1OC(=O)[C@H](C)C(=O)[C@H](C)[C@@H](O[C@@H]2O[C@H](C)C[C@H](N(C)C)[C@H]2O)[C@](C)(OC)C[C@@H](C)C(=O)[C@H](C)[C@H]2N(CCCCn3cnc(-c4cccnc4)c3)C(=O)O[C@]12C [telithromycin], the MIC90 [25] was 0.12 ig/ml, the MIC90 [26] was 0.008 ig/ml and the susceptible (S. pneumoniae [27]; year 1: 2002) was 99.7%. The susceptible (S. pneumoniae [27]; year 2: 2003) was 99.1%, the MIC50 [9] was 0.007 µg/mL (≈ 0.00862 µM) and the MIC90 [9] was 2 µg/mL (≈ 2.46 µM). For the same compound, the MIC90 [28] was 4 ig/ml, the Susceptibility (S. pyogenes [29]) was 92.7% and the MIC90 [30] was 0.008 ig/ml.

Source: article PMC7129073 (Clinical Microbiology and Infection, 2015)
